{"source": "paper PMC11323500", "about": "“Functional redundancy of ubiquitin-like sulfur-carrier proteins facilitates flexible, efficient sulfur utilization in the primordial archaeon Thermococcus kodakarensis” (mBio, 2024)", "biological_target": "T1, TK2117 (with TK2118 / UblB) (Thermococcus kodakarensis, UniProt Q5JEX2)", "T1 construct": "tag removal not mentioned; with Ubiquitin-like sulfur-carrier protein UblB (MoaD family)", "T1 sequence (Q5JEX2 1-232)": "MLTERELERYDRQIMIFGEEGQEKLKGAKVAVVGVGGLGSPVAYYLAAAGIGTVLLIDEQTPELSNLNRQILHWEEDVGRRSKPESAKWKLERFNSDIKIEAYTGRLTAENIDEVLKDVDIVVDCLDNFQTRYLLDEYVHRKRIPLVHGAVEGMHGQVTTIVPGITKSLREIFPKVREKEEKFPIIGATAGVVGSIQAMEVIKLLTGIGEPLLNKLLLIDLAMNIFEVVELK", "T1 sequence (Q5JEX1 1-88 partner)": "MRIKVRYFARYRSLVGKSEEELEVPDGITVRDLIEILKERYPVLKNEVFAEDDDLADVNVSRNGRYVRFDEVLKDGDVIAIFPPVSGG", "assay": "pyrophosphate release measured as phosphate (Biomol Green, inorganic pyrophosphatase)", "format": "biochemical", "conditions": "10 mM ATP; 5 mM MgCl2; 4.0 µM TK2117; 10.0 µM TK2118 as co-substrate; pH 8.0; 80 °C", "data": [{"smiles": "Nc1ncnc2c1ncn2[C@@H]1O[C@H](COP(=O)(O)OP(=O)(O)OP(=O)(O)O)[C@@H](O)[C@H]1O", "note": "[ATP]", "values": [{"measurement": "pyrophosphate release measured as phosphate (Biomol Green, inorganic pyrophospha)", "value": "TK2117 formed pyrophosphate in the presence of TK2118"}]}]}
